Source: US11400081B2, “Compounds” (The University of Sheffield, priority 2017, dated 2022)

The molecules below were run against T1, AM2 receptor (CALCRL+RAMP3) (Homo sapiens, UniProt O60896+Q16602) (assay: AM2 receptor inhibition, LANCE TR-FRET cAMP agonist-antagonist competition assay). Conditions: inhibition of AM induced cAMP activation; 1321N1 cells transfected with CALCRL+RAMP3; read-out: AM2 pIC50 (converted).
T1 construct: host or cells: 1321N1
Assay type: cell-based
Experimental: Compounds were assessed for their ability to inhibit ligand-induced elevations of cAMP, using the Perkin Elmer LANCE cAMP assay using commercially-available cells expressing a specific receptor of interest using the following general procedure:
Compounds were prepared in dimethyl sulfoxide (DMSO—99.9% pure) (Sigma Aldrich, Cat #: D4540) added to powder stocks to produce a 20 mM solution (100% DMSO) that was sonicated at 37° C. for 10 minutes to fully dissolve the compounds. The 20 mM stocks were diluted further in DMSO to produce a 2 mM solution that was sonicated at 37° C. for 10 minutes. 2 mM stocks were dissolved in assay/stimulation buffer to produce a 400 μM solution that was sonicated at 37° C. for 10 minutes for all cAMP assays. All stocks were stored at −20° C. Then serial dilution (Dilution factor 10) was performed to achieve the desire experimental concentrations.
Competition assays were performed according to the manufactures instructions using LANCE® TR-FRET cAMP assay kit (Perkin Elmer, Cat #: AD0264). Serial dilutions (3 μl/well) of the molecules were plated in a 384-well OptiPlate (Perkin Elmer, Cat #: 6007299) in duplicates. Appropriate controls (100% stimulation: Forskolin and 0% stimulation: Vehicle control) (6 μl/well) were included in each plate for data normalization. Following the compound addition, 6 μl of G-protein coupled receptor overexpressing cells/Alexa Fluor antibody solution (1:100 dilution) was added in each well at a desired density of 2500 cells/well. The overexpressing cell lines were purchased from DiscoveRx, Birmingham, UK. After spinning the plate at 1000 rpm for 1 minute and vortexing briefly, the cells were pre-incubated with the compounds for 30 minutes at room temperature (covered). Then 3 μl of the equivalent peptide ligand (EC50 dose) was added to all the wells except vehicle and forskolin controls. The plate were then spun down at 1000 rpm for 1 minute and once finished they were vortexed briefly and covered. Cells were stimulated in the presence of the ligands for 15 minutes at room temperature. After stimulation 12 μl of detection mix (Europium-Chelate streptavidin/biotinylated cAMP tracer solution) was added to all wells and incubated for 60 minutes at room temperature. The plate was then read on the Enspire multimode Plate reader (Perkin Elmer), at; 320/340 nm excitation and 615/665 nm emission was recorded.
• 28 mL Hank's Balanced salt solution (+MgCl2, +CaCl2)—(Thermo Fisher Cat #:14170112) • 150 μl HEPES (1M)—(Thermo Fisher Cat #:15630080) • 400 μl Stabilizer (DTPA) Purified BSA (7.5%)—(Perkin Elmer, Cat #: CR84-100) • 60 μl IBMX (250 mM)—(Sigma Aldrich, Cat #: 15879) Specific cAMP/Agonist-Antagonist Competition Assays
The ability of a compound to inhibit the AM induced cAMP activation in AM2 receptor-expressing cells (1321N1 cells transfected with CALCRL+RAMP3, sourced from DiscoverX catalogue number 95-0169C6) was assessed using the protocol above.

T1 sequence (Q16602 23-461): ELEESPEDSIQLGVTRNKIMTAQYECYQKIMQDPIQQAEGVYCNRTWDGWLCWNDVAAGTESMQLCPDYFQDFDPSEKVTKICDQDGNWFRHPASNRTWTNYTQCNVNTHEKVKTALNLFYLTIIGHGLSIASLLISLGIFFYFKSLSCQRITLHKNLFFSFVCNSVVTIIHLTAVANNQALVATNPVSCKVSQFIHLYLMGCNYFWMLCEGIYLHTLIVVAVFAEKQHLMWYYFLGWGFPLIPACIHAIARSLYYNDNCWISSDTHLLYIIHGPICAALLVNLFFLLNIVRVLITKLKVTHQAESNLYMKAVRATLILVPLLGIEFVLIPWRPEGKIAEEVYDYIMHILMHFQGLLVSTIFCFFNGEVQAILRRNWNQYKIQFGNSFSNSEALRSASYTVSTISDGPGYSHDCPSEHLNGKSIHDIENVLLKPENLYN
T1 sequence (O60896 24-148): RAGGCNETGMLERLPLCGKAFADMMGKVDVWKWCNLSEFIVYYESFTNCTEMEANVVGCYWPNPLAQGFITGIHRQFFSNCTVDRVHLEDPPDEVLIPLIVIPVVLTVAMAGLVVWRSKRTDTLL

IC50 [nM] | SMILES
15.1 | CNCc1ccccc1CN(CC(=O)Nc1ccc2c(c1)CC1(C2)C(=O)Nc2ncccc21)C(=O)C1(C)COC1 (stereo not drawn) [Example 58, 3-Methyl-N-(2-((methylamino)methyl)benzyl)-N-(2-oxo-2-((2′-oxo-1,1′,2′,3-tetrahydrospiro[indene-2,3′-pyrrolo[2,3-b]pyridin]-5-yl)amino)ethyl)oxetane-3-carboxamide]
3.63 | CNCc1ccccc1CN(CC(=O)Nc1ccc2c(c1)CC1(C2)C(=O)Nc2ncccc21)C(=O)C1(C(F)(F)F)CC1 (stereo not drawn) [Example 75, N-[[2-(methylaminomethyl)phenyl]methyl]-N-[2-oxo-2-[(2-oxospiro[1H-pyrrolo[2,3-b]pyridine-3,2′-indane]-5′-yl)amino]ethyl]-1-(trifluoromethyl)cyclopropanecarboxamide 2,2,2-trifluoroacetate]
245 | NCc1ccccc1CN(CC(=O)Nc1ccc2c(c1)C[C@@]1(C2)C(=O)Nc2ncccc21)C(=O)C1(C(F)(F)F)CC1 [Example 99, N-[[2-(Aminomethyl)phenyl]methyl]-N-[2-oxo-2-[(2-oxospiro[1H-pyrrolo[2,3-b]pyridine-3,2′-indane]-5′-yl)amino]ethyl]-1-(trifluoromethyl)cyclopropylcarboxamide 2,2,2-trifluoroacetate]

The next lines start with the molecule.

SMILES | IC50 [nM]
CNCc1ccccc1CN(CC(=O)Nc1cnc2c(c1)CC1(C2)C(=O)Nc2ncccc21)C(=O)C(C)(C)C (stereo not drawn) [Example 105, N-(2-((methylamino)methyl)benzyl)-N-(2-oxo-2-((2′-oxo-1′,2′,5,7-tetrahydrospiro[cyclopenta[b]pyridine-6,3′-pyrrolo[2,3-b]pyridin]-3-yl)amino)ethyl)pivalamide 2,2,2-trifluoroacetate] | 50.1
CNCc1ccccc1CN(CC(=O)Nc1ccc2c(c1)C[C@@]1(C2)C(=O)Nc2ncccc21)C(=O)C(C)(C)C(F)(F)F [Example 96, 3,3,3-trifluoro-2,2-dimethyl-N-[[2-(methylaminomethyl)phenyl]methyl]-N-[2-oxo-2-[[(3R)-2-oxospiro[1H-pyrrolo[2,3-b]pyridine-3,2′-indane]-5′-yl]amino]ethyl]propanamide 2,2,2-trifluoroacetate] | 49
CNCc1ccccc1CN(CC(=O)Nc1ccc2c(c1)CC1(C2)C(=O)Nc2ncccc21)C(=O)C(C)(C)OC (stereo not drawn) [Example 59, 2-Methoxy-2-methyl-N-(2-((methylamino)methyl)benzyl)-N-(2-oxo-2-((2′-oxo-1,1′,2′,3-tetrahydrospiro[indene-2,3′-pyrrolo[2,3-b]pyridin]-5-yl)amino)ethyl)propanamide] | 9.33
CNCc1ccccc1CN(CC(=O)Nc1ccc2c(c1)CC1(C2)C(=O)Nc2ncccc21)C(=O)C1CN(C(C)=O)C1 (stereo not drawn) [Example 68, 1-(Acetyl)-N-[[2-(methylaminomethyl)phenyl]methyl]-N-[2-oxo-2-[(2-oxospiro[1H-pyrrolo[2,3-b]pyridine-3,2′-indane]-5′-yl)amino]ethyl]azetidine-3-carboxamide] | 33.1
CNCc1ccccc1CN(CC(=O)Nc1ccc2c(c1)C[C@@]1(C2)C(=O)Nc2ncccc21)C(=O)C(C)(C)F [Example 95, (R)-2-Fluoro-2-methyl-N-(2-((methylamino)methyl)benzyl)-N-(2-oxo-2-((2′-oxo-1,1′,2′,3-tetrahydrospiro[indene-2,3′-pyrrolo[2,3-b]pyridin]-5-yl)amino)ethyl)propanamide 2,2,2-trifluoroacetate] | 28.8
CC(=N)NCc1ccccc1CN(CC(=O)Nc1ccc2c(c1)CC1(C2)C(=O)Nc2ncccc21)C(=O)C(C)(C)C (stereo not drawn) [Example 42, N-(2-(Acetimidamidomethyl)benzyl)-N-(2-oxo-2-((2′-oxo-1,1′,2′,3-tetrahydrospiro[indene-2,3′-pyrrolo[2,3-b]pyridin]-5-yl)amino)ethyl)pivalamide] | 135
